Kd and inhibition data for one compound are collected here from patent US7659299B2, “Compounds inhibiting the binding of sap for treating osteoarthritis” (Pentraxin Therapeutics Limited, priority 2003, dated 2010).

Values joined by “and” are separate entries in the source; they are usually repeats but may differ in a detail not shown here. Identical values can stand only once.

Experiment [1] concerns the target T1, SAP (Homo sapiens, UniProt P02743). Nature of the experiment: Isothermal calorimetry: dissociation constants between SAP and compounds. Format: binding. Conditions: replicate measurements, read-out: Kd in micromoles per liter (replicate measurements). The text has this: Surface plasmon resonance (SPR) is a low throughput but powerfully informative method to identify compounds that are bound by, or themselves bind to SAP, either in a calcium dependent fashion or independently of calcium, for the purposes of the present invention. For example, low molecular weight compounds that inhibit binding of SAP to its macromolecular ligands, including target ligands relevant to the present invention, can be detected by their effect on the signal generated by fluid phase SAP binding to ligand immobilised on the solid phase (Example A). Furthermore, when SAP itself is immobilised on the solid phase in an SPR instrument, the interaction with it of test molecules provided in the fluid phase generates a signal that can be detected and quantified. Purified SAP immobilized within an SPR instrument gives a quantifiable signal when it is exposed to another molecule that forms a complex with the SAP, and this is distinct from the absence of such a signal if no complex is formed. […] Another low throughput but powerful direct method is isothermal calorimetry that measures the heat of interaction in solution between SAP and test compounds according to the present invention. The binding affinity can be measured precisely as a guide to potential efficacy. Typical results by this method for the dissociation constants, Kd, between SAP and various compounds are as follows: […]
(In general: ITC needs no label: the signal is the heat of the interaction.)

Experiment [2] deals with T1, SAP. In words: Inhibition of binding of 125I radiolabelled SAP to Neisseria meningitidis immobilized in microtitre plates. The arrangement: 5 μl of radiolabelled SAP in TN; from tissue. Conditions: read-out: Percent inhibition of binding of radiolabelled SAP to immobilized Neisseria meningitidis.
Experiment [3] addresses T1, SAP. Nature of the experiment: Inhibition of binding of 125I radiolabelled SAP to native long chromatin immobilized in microtitre plates. The arrangement: 5 μl of radiolabelled SAP in TN; from tissue. Conditions: read-out: Percent inhibition of binding of radiolabelled SAP to immobilized native long chromatin.
The target in experiment [4] is T1, SAP. In words: Inhibition of binding of 125I radiolabelled SAP to influenza virus immobilized in microtitre plates. Details: 5 μl of radiolabelled SAP in TN; from tissue. Conditions: read-out: Percent inhibition of binding of radiolabelled SAP to immobilized influenza virus.

T1 sequence (P02743 20-223): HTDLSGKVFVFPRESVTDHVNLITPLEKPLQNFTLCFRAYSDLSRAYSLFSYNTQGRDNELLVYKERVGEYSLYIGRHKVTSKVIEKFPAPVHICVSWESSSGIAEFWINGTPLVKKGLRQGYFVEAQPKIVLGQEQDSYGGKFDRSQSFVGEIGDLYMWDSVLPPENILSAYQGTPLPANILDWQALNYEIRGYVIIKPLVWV

For the compound `O=C(O)[C@H]1CCCN1C(=O)CCCCC(=O)N1CCC[C@@H]1C(=O)O` [Ro-63-8695, (R)-1-[6-[(R)-2-Carboxy-pyrrolidin-1-yl]-6-oxo-hexanoyl]pyrrolidine-2-carboxylic acid], the dissociation constant (Kd) on SAP [1] is 13.9 nM and 5.9 nM and 6.5 nM and 8.8 nM. The inhibition at 0.2 µM on SAP [2] (compound 200 nM) was determined as 5%; at SAP [3] (compound 200 nM) it was 1%; on SAP [4] (compound 200 nM), 36%. Also, the values for the inhibition at 2 µM on SAP [2] (compound 2 μM), on SAP [3] (compound 2 μM) and at SAP [4] (compound 2 μM) were 61%, 29% and 81%, respectively. For the same compound, the inhibition at 20 µM came to 74% at SAP [2] (compound 20 μM), 69% on SAP [3] (compound 20 μM) and 90% at SAP [4] (compound 20 μM). The inhibition at 200 µM is 79% at SAP [2] (compound 200 μM), 87% on SAP [3] (compound 200 μM) and 96% on SAP [4] (compound 200 μM). Also, the results for the inhibition at 2000 µM on SAP [2] (compound 2 mM), on SAP [3] (compound 2 mM) and at SAP [4] (compound 2 mM) were 100%, 93% and 98%, respectively.

Broadly, the Kd is the equilibrium constant for the complex coming apart. The inhibition is the share of the control response that was lost under treatment.
